The results in this text go back to paper PMC5647378, “Structural and Mechanistic Analysis of Drosophila melanogaster Agmatine N-Acetyltransferase, an Enzyme that Catalyzes the Formation of N-Acetylagmatine” (Scientific Reports, 2017).

Read-outs that look alike come from different tables or passages of the source.

Series [1] concerns the target T1, Drosophila melanogaster AgmNAT (CG15766), wild-type (Drosophila melanogaster, UniProt Q9W469). Briefly: AgmNAT dead-end and product inhibition analysis. The class given is biochemical. The method, then: Initial velocities were determined by varying the concentration of one substrate, while holding the other substrate at a fixed concentration. […] The resulting initial velocity data was fit to equation 3 for an ordered Bi-Bi mechanism and equation 4 for a ping pong mechanism using IGOR Pro 6.34 A, where vo is the initial velocity, Vmax is the maximal velocity, Kia is the dissociation constant for substrate A, Kb is the Michaelis constant for substrate B, Ka is the Michaelis constant for substrate A, [A] is the concentration of substrate A, and [B] is the concentration of substrate B.3 vo=Vmax[A][B]/KiaKb+Ka[B]+Kb[A]+[A][B] 4 vo=Vmax[A][B]/Ka[B]+Kb[A]+[A][B]
Inhibition experiments by either substrate analogs or N-acetylagamatine were used to discriminate between an ordered, random sequential, or ping pong kinetic mechanism. […] Initial velocity patterns were generated by varying the concentration of one substrate, holding the other substrate concentration at its apparent Km, and changing the concentration of inhibitor for each data set in triplicate. The resulting data was fit to equations 5–7, for competitive, noncompetitive, and uncompetitive inhibition respectively using SigmaPlot 12.0. For […], vo is the initial velocity, Vmax,app is the apparent maximal velocity, Km,app is the apparent Michaelis constant, [S] is the substrate concentration, [I] is the inhibitor concentration, and Ki is the inhibition constant.5 vo=Vmax,app[S]/Km,app(1+[I]/Ki)+[S] 6 vo=Vmax,app[S]/Km,app(1+[I]/Ki)+[S](1+[I]/Ki) 7 vo=Vmax,app[S]/Km,app+[S](1+[I]/Ki)

Series [2] concerns the target T1, Drosophila melanogaster AgmNAT (CG15766), wild-type. Briefly: AgmNAT steady-state kinetics, coenzyme A release with Ellman's reagent (DTNB). The format is biochemical. As to conditions: for kcat,app / Km: 300 mM Tris-HCl pH 8.5, 150 µM DTNB; for acceptance as amine substrate: amine substrate screen with acetyl-CoA. The method, then: Steady-state kinetic constants for AgmNAT were determined by measuring the rate of coenzyme A release using Ellman’s reagent (DTNB) at 412 nm (molar absorptivity = 13,600 M^−1 cm^−1)[15]–[17]. […] Initial velocities were measured using a Cary 300 Bio UV-Visible spectrophotometer at 22 °C. Acyl-CoA kinetic constants were evaluated by holding the concentration of agmatine at a constant saturating concentration (5 mM). […] The apparent kinetic constants were determined by fitting the resulting data to equation 1 using SigmaPlot 12.0, where vo is the initial velocity, Vmax,app is the apparent maximal velocity, [S] is the substrate concentration, and Km,app is the apparent Michaelis constant. Each assay was performed in triplicate and the uncertainty for the kcat,app and (kcat/Km)app values were calculated using equation 2, where σ is the standard error.1 vo=Vmax,app[S]/Km,app+[S] 2 σ(x/y)=x/y(σx/x)^2+(σy/y)^2

Substrate in series [3]: NCCCCNCCCN
Described as above. As to conditions: other: amine varied, 500 μM acetyl-CoA, 300 mM Tris-HCl pH 8.5, 150 µM DTNB, 22.0 °C. The class given is biochemical, Drosophila melanogaster.

Substrate in series [4]: N=C(N)NCCCCN
Described as above. The class given is biochemical, Drosophila melanogaster. As to conditions: other: amine varied, 500 μM acetyl-CoA, 300 mM Tris-HCl pH 8.5, 150 µM DTNB, 22.0 °C.

Substrate in series [5]: NCCCCCN
The description is as above. The format is biochemical, Drosophila melanogaster. Conditions: other: amine varied, 500 μM acetyl-CoA, 300 mM Tris-HCl pH 8.5, 150 µM DTNB, 22.0 °C.

Substrate in series [6]: CC(=O)SCCNC(=O)CCNC(=O)[C@H](O)C(C)(C)COP(=O)(O)OP(=O)(O)OC[C@H]1O[C@@H](n2cnc3c(N)ncnc32)[C@H](O)[C@@H]1OP(=O)(O)O
Description: Steady-state kinetics of AgmNAT site-directed mutant P35A. The class given is biochemical, Drosophila melanogaster. Conditions: other: P35A, acetyl-CoA varied, saturating agmatine, pH 8.5.

Substrate in series [7]: N=C(N)NCCCCN
Described as above. The format is biochemical, Drosophila melanogaster. Conditions: other: P35A, agmatine varied, saturating acetyl-CoA, pH 8.5.

Substrate in series [8]: CC(=O)SCCNC(=O)CCNC(=O)[C@H](O)C(C)(C)COP(=O)(O)OP(=O)(O)OC[C@H]1O[C@@H](n2cnc3c(N)ncnc32)[C@H](O)[C@@H]1OP(=O)(O)O
Briefly: Steady-state kinetics of AgmNAT site-directed mutant E34A. The format is biochemical, Drosophila melanogaster. Conditions: other: E34A, acetyl-CoA varied, saturating agmatine, pH 8.5.

Substrate in series [9]: N=C(N)NCCCCN
Described as above. As to conditions: other: E34A, agmatine varied, saturating acetyl-CoA, pH 8.5. The format is biochemical, Drosophila melanogaster.

Substrate in series [10]: CC(=O)SCCNC(=O)CCNC(=O)[C@H](O)C(C)(C)COP(=O)(O)OP(=O)(O)OC[C@H]1O[C@@H](n2cnc3c(N)ncnc32)[C@H](O)[C@@H]1OP(=O)(O)O
Description: Steady-state kinetics of AgmNAT site-directed mutant S171A. The format is biochemical, Drosophila melanogaster. As to conditions: other: S171A, acetyl-CoA varied, saturating agmatine, pH 8.5.

Substrate in series [11]: N=C(N)NCCCCN
Described as above. Conditions: other: S171A, agmatine varied, saturating acetyl-CoA, pH 8.5. The format is biochemical, Drosophila melanogaster.

Setting [12] is: varied substrate agmatine, constant acetyl-CoA (0.1 mM; 104 µM), read-out: Ki,s.
Where [13] appears, read: acyl-CoA varied, 5 mM agmatine, read-out: Km,app.
Where [14] appears, read: amine varied, 500 μM acetyl-CoA.
The mark [15] stands for this setting: amine varied, 500 μM acetyl-CoA, read-out: Km, app.

Take `NC(N)=NCCCCN=C(N)N` [Arcaine]: the Ki in series [1] (varied substrate acetyl-CoA, constant agmatine (0.3 mM), read-out: Ki,i) was 34 ± 1 µM; in series [1] (setting [12]), 28 ± 1 µM. The “type of inhibition plot (in words)” value in [1] (versus acetyl-CoA) is recorded as “uncompetitive”; in series [1] (versus agmatine) it was “competitive”.
For the molecule `CCCC(=O)SCCNC(=O)CCNC(=O)[C@H](O)C(C)(C)COP(=O)(O)OP(=O)(O)OC[C@H]1O[C@@H](n2cnc3c(N)ncnc32)[C@H](O)[C@@H]1OP(=O)(O)O` [Butyryl-CoA], the “kcat,app” value in [2] (acyl-CoA varied, 5 mM agmatine) stood at 3.3 ± 0.1 s⁻¹. Besides, the Km in series [2] (setting [13]) stood at 40 µM.
In the case of `NCCCCCN` [Cadaverine], in series [2] (acetyl-CoA as co-substrate), the “(kcat/Km)app,agmatine/(kcat/Km)app,polyamine ratio” value came to 1900.
As for `CCCCCCCCCC(=O)SCCNC(=O)CCNC(=O)[C@H](O)C(C)(C)COP(=O)(O)OP(=O)(O)OC[C@H]1O[C@@H](n2cnc3c(N)ncnc32)[C@H](O)[C@@H]1OP(=O)(O)O` [Decanoyl-CoA], the “kcat,app” value in [2] (acyl-CoA varied, 5 mM agmatine) was 0.16 ± 0.01 s⁻¹. In [2] (setting [13]), the Km turned out to be 70 µM. The “decrease in kcat,app from acetyl-CoA to decanoyl-CoA” value in series [2] (agmatine as saturating amine substrate) was ~ 150 fold.
With `CCCCCC(=O)SCCNC(=O)CCNC(=O)C(O)C(C)(C)COP(=O)(O)OP(=O)(O)OC[C@H]1O[C@@H](n2cnc3c(N)ncnc32)[C@H](O)[C@@H]1OP(=O)(O)O` (some centres unmarked) [Hexanoyl-CoA], the “kcat,app” value in [2] (acyl-CoA varied, 5 mM agmatine) was 1.1 ± 0.04 s⁻¹. In series [2] (setting [13]), the Km was determined as 110 µM.
On to `CC(=O)NCCCNCCCCN` [N ^1-acetylspermidine], for which the “acceptance as amine substrate” value in [2] is “not AgmNAT substrates”.
As for `CC(=O)NCCCCNCCCN` [N ^8-acetylspermidine], in [2] (acetyl-CoA as co-substrate), the “difference in Km,app relative to spermidine” value is listed as ~ 2 fold and the “increase in kcat,app compared to spermidine” value is ~ 25 fold. Moreover, in series [2] (setting [14]), the “kcat,app” value was found to be 32 ± 2 s⁻¹. Moreover, the Km in series [2] (setting [15]) was 9100 ± 1000 µM.
On to `CC(=O)NCCCCN` [N-acetylputrescine], for which the “acceptance as amine substrate” value in series [2] was “not AgmNAT substrates”.
Take `CCCCCCCC(=O)SCCNC(=O)CCNC(=O)[C@H](O)C(C)(C)COP(=O)(O)OP(=O)(O)OC[C@H]1O[C@@H](n2cnc3c(N)ncnc32)[C@H](O)[C@@H]1OP(=O)(O)O` [Octanoyl-CoA]: the “kcat,app” value in [2] (acyl-CoA varied, 5 mM agmatine) turned out to be 0.61 ± 0.02 s⁻¹. In addition, the Km in series [2] (setting [13]) is 140 µM.
Regarding `CCCCCCCC/C=C\CCCCCCCC(=O)SCCNC(=O)CCNC(=O)[C@H](O)C(C)(C)COP(=O)(O)OP(=O)(O)OC[C@H]1O[C@@H](n2cnc3c(N)ncnc32)[C@H](O)[C@@H]1OP(=O)(O)O` [Oleoyl-CoA], the “acceptance as acyl-CoA substrate” value in series [2] (agmatine as amine substrate, oleoyl-CoA at 500 μM) is on record as “not a substrate”. For the same molecule, the Ki in series [1] (varied substrate acetyl-CoA, constant agmatine (0.3 mM), read-out: Ki,s) turned out to be 19 ± 1 µM; in [1] (varied substrate agmatine, constant acetyl-CoA (0.1 mM; 104 µM), read-out: Ki,i), 67 ± 4 µM; in series [1] (setting [12]) it was 67 ± 4 µM. Also, the “type of inhibition plot (in words)” value in [1] (versus acetyl-CoA) is listed as “competitive”; in series [1] (versus agmatine), “noncompetitive”.
In the case of `NCCCCN` [Putrescine], the “kcat,app” value in series [2] (setting [14]) is 7.7 ± 0.3 s⁻¹. Further, the Michaelis constant (Km) in series [2] (setting [15]) stood at 51000 ± 3000 µM.
On to `NCCCNCCCCNCCCN` [Spermine], for which the “(kcat/Km)app,agmatine/(kcat/Km)app,polyamine ratio” value in series [2] (acetyl-CoA as co-substrate) was 15. The “kcat,app” value in [2] (setting [14]) was 77 ± 7 s⁻¹. The Km in [2] (setting [15]) stood at 18000 ± 3000 µM.
For the molecule `N=C(N)NCCC[C@H](N)C(=O)O` [arginine], in series [2], the “acceptance as amine substrate” value was “not AgmNAT substrates”.

B1: Drosophila melanogaster AgmNAT (CG15766), wild-type (Drosophila melanogaster) (protein)
chain: MAKPIADDIVVRQVDVGETEQLMTFLLAHYYPEEPLTAGTHPPEPEAADKEFLLSNVPFGTCFVALHEGRIVAAVVAGPKDSHEPEHMAEEARKYAGGKWGSILHLLSAVETATDVCRRFSVPSCLHVHALGVDPQLRGRNLGGRLMETVAQRGRDLGHQLVSVDCTSVYSARLVQRLGYQLINTLRYVDHLDASGQQVIRPPPPHESVQTFVLHL
On to B1, for which, in [3], the Km worked out at 17000 ± 500 µM, the kcat worked out at 1.3 ± 0.009 s⁻¹ and the kcat/Km is 76 ± 0.5 M⁻¹ s⁻¹. For the same molecule, in series [4], the Km was 300 ± 20 µM, the catalytic constant (kcat) is 18 ± 1 s⁻¹ and the catalytic efficiency (kcat/Km) amounted to 60000 ± 5000 M⁻¹ s⁻¹. For the same molecule, in series [5], the Km amounted to 32000 ± 6000 µM, the kcat came to 1 ± 0.1 s⁻¹ and the kcat/Km was 32 ± 6 M⁻¹ s⁻¹.

B2: AgmNAT P35A mutant (Drosophila melanogaster; P35A) (protein)
chain: MAKPIADDIVVRQVDVGETEQLMTFLLAHYYPEEALTAGTHPPEPEAADKEFLLSNVPFGTCFVALHEGRIVAAVVAGPKDSHEPEHMAEEARKYAGGKWGSILHLLSAVETATDVCRRFSVPSCLHVHALGVDPQLRGRNLGGRLMETVAQRGRDLGHQLVSVDCTSVYSARLVQRLGYQLINTLRYVDHLDASGQQVIRPPPPHESVQTFVLHL
For B2, in series [6], the Michaelis-Menten constant (Km) entry was “(2.3 ± 0.3) × 10^2 μM”, the kcat was 0.43 ± 0.03 s⁻¹ and the kcat/Km was 1900 ± 300 M⁻¹ s⁻¹. In series [7], the Km came to 180 ± 20 µM, the kcat stood at 0.36 ± 0.02 s⁻¹ and the kcat/Km was determined as 1900 ± 200 M⁻¹ s⁻¹.

B3: AgmNAT E34A mutant (Drosophila melanogaster; E34A) (protein)
chain: MAKPIADDIVVRQVDVGETEQLMTFLLAHYYPEAPLTAGTHPPEPEAADKEFLLSNVPFGTCFVALHEGRIVAAVVAGPKDSHEPEHMAEEARKYAGGKWGSILHLLSAVETATDVCRRFSVPSCLHVHALGVDPQLRGRNLGGRLMETVAQRGRDLGHQLVSVDCTSVYSARLVQRLGYQLINTLRYVDHLDASGQQVIRPPPPHESVQTFVLHL
In the case of B3, in series [8], the Km is 18 ± 3 µM, the kcat was found to be 0.011 ± 0.0004 s⁻¹ and the kcat/Km was found to be 600 ± 100 M⁻¹ s⁻¹. In [9], the Km is 6000 ± 1000 µM, the kcat came out at 0.013 ± 0.001 s⁻¹ and the kcat/Km came out at 2.3 ± 0.3 M⁻¹ s⁻¹.

B4: AgmNAT S171A mutant (Drosophila melanogaster; S171A) (protein)
chain: MAKPIADDIVVRQVDVGETEQLMTFLLAHYYPEEPLTAGTHPPEPEAADKEFLLSNVPFGTCFVALHEGRIVAAVVAGPKDSHEPEHMAEEARKYAGGKWGSILHLLSAVETATDVCRRFSVPSCLHVHALGVDPQLRGRNLGGRLMETVAQRGRDLGHQLVSVDCTSVYAARLVQRLGYQLINTLRYVDHLDASGQQVIRPPPPHESVQTFVLHL
For the molecule B4, in series [10], the Km came to 24 ± 1 µM, the turnover number (kcat) was found to be 1.84 ± 0.03 s⁻¹ and the kcat/Km is 75000 ± 3000 M⁻¹ s⁻¹. In addition, in series [11], the Km turned out to be 1000 ± 200 µM, the kcat turned out to be 1.7 ± 0.1 s⁻¹ and the kcat/Km is 1600 ± 300 M⁻¹ s⁻¹.
